Test system: A2058 cells
Test: Inhibition assay for phosphatidylinositol 3-kinase (pretreatment with wortmannin or LY294002, alamarBlue viability)
Assay type: cell-based, human
Details: then compound 10^−5 M for 48 h, from averages of 6 parallels
Procedure: The association of PI3K activation with the antitumor activity of the conjugates was determined by pretreating the cells with PI3K inhibitors (wortmannin – W and LY294002 – LY). The antitumor effect of the conjugates and Dau on the cells pretreated with PI3K inhibitors or with DMSO (solvent of the inhibitors) was assessed by an alamarBlue-assay after 48 h of incubation. The results of the PI3K-assay were given by calculating the inhibition index as the ratio of the viability of the pretreated and control (DMSO-treated) cell populations being incubated with medium or conjugates (10^−5 M). […]
was measured with LS-50B Luminescence Spectrometer (Perkin Elmer Ltd., Buckinghamshire United Kingdom) by using λ = 560 nm for excitation and λ = 590 nm for detection of the emitted light.
Each data represents the mathematical average of six parallels. The decrease in the fluorescence intensity caused by the different treatments was normalized to the identical control and this value was given as ‘Viability’ in percent. […]
A2058 cells were prepared in 96-well plates as it was aforementioned in ‘Cell proliferation and cytotoxicity measurement’ section. […] The number of viable cells was determined by the alamarBlue-assay as it was described in ‘Cell proliferation and cytotoxicity measurement’ chapter. To analyze the effects of inhibitors on the actions of conjugates, the inhibition index was calculated by […]

COc1cccc2c1C(=O)c1c(O)c3c(c(O)c1C2=O)C[C@@](O)(C(C)=O)C[C@@H]3O[C@H]1C[C@H](N)[C@H](O)[C@H](C)O1 [daunorubicin]
inhibition index, LY294002 (A2058 cells pretreated 30 min with LY294002 (15 μM)): 100.7 ± 4.0%
inhibition index, wortmannin (A2058 cells pretreated 30 min with wortmannin (50 nM)): 121.0 ± 8.1%
